One series concerns N2a cells. The series is described as follows: Cytotoxicity, MTT assay, N2a cells. The format is cell-based. The conditions noted are these: 24 h, FIG. 3A. The method, then:
(§1) The cell lines N2a (A), HT22 (B) and MO3.13 (C) cells were incubated for 24 h with the indicated doses of CBG-Q (Compound I) versus compounds II to XII, and cell viability was quantified by MTT assay. […] Control was set as 100% and data were referred to that value.
(§2) Electrophilic quinones induce cytotoxicity and activate the Nrf2 pathway, a cellular sensor of reactive oxygen species generation. In FIG. 3 it is analyzed the induced cell death in three different types of cells (N2a, HT22 and MO3.13) by compounds CBG-Q (compound I) and compounds (II) to (XII).
(§3) N2A, HT22 and MO3.13 cell viability was determined by the MTT assay. Briefly, cells were seeded at a density of 10^4 cells/well in 96-well plates, 200 μl cell suspension per well, and cultured for 24 hours. Cells were then incubated with several concentrations of the compounds for 24 hours. […] Finally the absorbance was measured at 550 nm using a TriStar LB 941 (Berthold Technologies, GmbH & Co. KG). […] The cell lines N2a (FIG. 3A), HT22 (FIG. 3B) and MO3.13 (FIG. 3C) cells were incubated for 24 h with the indicated doses of compounds CBG-Q (compound I) and compounds (II) to (XII), and cell viability was quantified by MTT assay. Results are shown as mean±S.D. from at least three independent experiments, and expressed as percentage of cell viability against the control sample (−). […]

The test system of a further series is HT22 cells. Kind of series: Cytotoxicity, MTT assay, HT22 cells. The class given is cell-based. As to conditions: 24 h, FIG. 3B. As for the experimental part:
as §1, §2, §3
Background: Tetrazolium dyes change colour on reduction, which living cells bring about.

The next series deals with MO3.13 cells. The series is described as follows: Cytotoxicity, MTT assay, MO3.13 cells. As to conditions: 24 h, FIG. 3C. The format is cell-based. As for the experimental part: as §1, §2, §3
Another series concerns Nrf2. Kind of series: Nrf2 transcriptional assay in HaCaT-ARE-Luc cells. The class given is cell-based. The conditions noted are these: 6 h, FIG. 4. As for the experimental part:
HaCaT-ARE-Luc cells were incubated for 6 h with compounds CBG-Q compound I) and with compounds I to VI (A) or with compounds VII to XII (B) at the indicated concentrations, and protein lysates were prepared and analysed for luciferase activity. The pro-oxidant tert-Butylhydroquinone (tBHQ) at 20 μM, a compound that induces cellular oxidative stress, was used as positive control. […] The results ratify that the reactive electrophilic activity associated to CBG-Q (compound I) is missing in all the compounds (derivatives in position 2) described in the present invention.
To study the activity of the compounds on the Nrf2 pathway we generated the HaCaT-ARE-Luc cell line. Nqo1 ARE-Luc reporter plasmid and pPGK-Puro plasmid were co-transfected into HaCat cells using Lipofectamine© 2000 transfection reagent (Life Technologies, Carlsbad, Ca, USA). Stable transformants were selected and maintained in RPMI 1640 containing 10% FBS, 1% penicillin-streptomycin and […] puromycin. HaCaT-ARE-Luc cells were incubated for 6 h with CBG-Q (compound I) and with compounds (II)-(VI) (A) or with compounds (VII)-(XII) (B) at the indicated concentrations, and protein lysates were prepared and analysed for luciferase activity as described in example 1. The prooxidant tert-Butylhydroquinone (tBHQ) at 20 μM was used as positive control. […]

The next series relates to 3NP-lesioned mice. The series is described as follows: Huntington's disease 3NP model, behavioral score. The format is in vivo, C57BL/6 mice. The conditions noted are these: 10 mg/kg i.p., four injections, FIG. 9. As for the experimental part:
Mice were subjected to behavioral tests for determining their neurological status after the treatment with compounds I (10 mg/kg) (A), III (10 mg/kg) (B) and XII (10 mg/kg) (C). Hind limb clasping, Locomotor activity, Hind limb dystonia and Truncal Dystonia were rated from 0 to 2 based on severity: a score of 0 typically indicates normal function and 2 seriously affected. Values are expressed as means±SEM for 8 animals per group.
Lesions of the striatum were induced with 3-NP in adult (16 week old; 30 g) male C57BL/6 mice (Harlan Ibérica, Barcelona, Spain). To this end, mice were subjected to seven intraperitoneal (i.p.) injections of 3NP (one injection each 12 hours) at a dose of 50 mg/kg (prepared in phosphate-buffered saline) for 3 days. These animals and their respective non-lesioned controls were used for pharmacological studies with compounds CBG-Q (compound I) and with compounds III and XII (FIG. 9). At least 6-8 animals were used per experimental group. Treatments consisted of four i.p. injections of the compounds at the indicated doses (one injection each 24 hours), or vehicle (DMSO 0.2%, BSA 5% in PBS) 30 min before the injections of 3NP. All animals were euthanized 12 hours after the last 3NP injection. Once euthanized, animals were dissected and their brains were rapidly removed. The right hemisphere was used to dissect the striatum, which was quickly frozen in RNAlater (Sigma-Aldrich, Germany) to analyzed inflammatory markers were by Real Time PCR. The left hemisphere was fixed in fresh 4% paraformaldehyde (in 0.1M phosphate buffered-saline) for 48 hours at 4° C. and embedded in paraffin wax for histological analysis. Mice were subjected to behavioral tests for determining their neurological status. We evaluated the general locomotor activity, the hindlimb clasping and dystonia, and the truncal dystonia. All behavioral tests were conducted prior to drug injections to avoid acute effects of the compounds under investigation.

Each structure is given as a SMILES string.

As to `CCCCCC1=CC(=O)C(C/C=C(\C)CCC=C(C)C)=C(O)C1=O` [CBG-Q, Cannabigerol hydroxy quinone], the “cytotoxic activity (cell viability, MTT)” value in the series on N2a cells, in the series with HT22 cells and with MO3.13 cells was “cytotoxic activity” in each case. In addition, the “Nrf2 activation (ARE-luciferase activity; reactive electrophilic activity)” value in the series on Nrf2 is “induces activation”. Further, in the series on 3NP-lesioned mice, the “clinical symptoms induced by 3-NP intoxication (hind limb clasping, locomotor activity, hind limb dystonia, truncal dystonia)” value was “unable to prevent the clinical symptoms”.
